Patent US20060165766A1, “Method for preparing liposome formulations with a predefined release profile” (priority 2001, published 2006)
Several values for one entry are separate records, joined by “and”; a condition that tells them apart may be missing. Identical values can stand only once. Counter-ions that a name gives are not always drawn.

Assays:
[1] = Osmolality measurements: contribution of amphipathic base to osmotic pressure of salt solutions (aggregation); format: physicochemical; conditions: for mOsm versos mM (slope); extent of dissociation: slope of osmolality (mOsm) versus concentration (mM); for % of expected value of osmolality contribution / Level of aggregation / Expected contribution of 25 mM amphipathic base to osmolality (calibrated in DDW and NaCl): 25 mM base; for Expected contribution of 25 mM amphipathic base to osmolality (calibrated in DDW and NaCl): pure water or NaCl solutions; for Osmolality of agent: 25 mM in DDW (pure water)
Protocol: Level of aggregation of the exemplified agents was evaluated by measuring osmotic pressure. Osmotic pressure is a colrgative property, depending on the actual concentration (particles per unit volume) of a solution. Thus, in case of aggregate formation in a solution, the actual concentration of the solution will be lower than the theoretical concentration of the solution, which will be evident by a lower than expected osmotic pressure.
For osmotic pressure measurements, double distilled water (DDW) obtained using Water ProPlus (Labconco, Kansas City, Mo., USA) was used for all solutions. Osmolality was measured using a 5500 Vapor Pressure Osmometer (Wescor Inc., Logan, Utah, USA) or freezing point osmometer μOSMETIE MicroOsmometer of Precision Systems (atich, MA, USA). Calibration curves of TMN, AO, and BUP osmolality in the range of 10-40 mM in pure water were used to describe the relationship between concentration and osmotic pressure of all compounds.
The effect of salts on the osmotic pressure of the amphipathic base (25 mM) was also examined by comparing the effect of NaCl with that of various ammonium salts. As a control, the osmotic pressure of each salt alone was also measured.

[2] = Conductivity measurements of salts; format: physicochemical; conditions: salt 50 mM in DDW
Protocol: Solutions in concentration range of 0.5-50 mM of NaCl and ammonium salts were prepared in DDW and measured in an “Oyster” conductivity meter (KTech).

[3] = Partition coefficient (Kp) octanol/water; format: physicochemical
From the text: Other parameters that may influence kinetics of release include the lipophilicity of the loaded agent and the liposome trapped volume. The higher the lipophilicity, the faster will be the release rate of the agent from the liposome. The lipophilicity of a compound may be reflected by its partition coefficient (Kp) is between octanol and water.

[4] = Aggregation of BUP and AO with dextran sulfate (DS); format: physicochemical; conditions: for Mole ratio weak base/DS at which aggregation (precipitation) starts: dextran sulfate
From the text: The dependence of the aggregation process on the loaded molecule was shown by the examples of BUP and AO. […] This however can be modified through the use of sodium salt of dextran sulfate as an additional counter ion. […]

[5] = Kinetics of TMN leakage from egg PC MLV; conditions: for Leakage from liposomes: 4° C.

Compound	mOsm versos mM (slope); extent of dissociation [1]	% of expected value of osmolality contribution ([1]; ammonium chloride 40 mM)	% of expected value of osmolality contribution ([1]; ammonium chloride 80 mM)	Level of aggregation ([1]; ammonium chloride 80 mM)	% of expected value of osmolality contribution ([1]; ammonium citrate 40 mM)	% of expected value of osmolality contribution ([1]; ammonium citrate 80 mM)	Level of aggregation ([1]; ammonium citrate 80 mM)	% of expected value of osmolality contribution ([1]; ammonium glucuronate 40 mM)	% of expected value of osmolality contribution ([1]; ammonium glucuronate 80 mM)	Level of aggregation ([1]; ammonium glucuronate 80 mM)	% of expected value of osmolality contribution ([1]; ammonium phosphate 40 mM)	% of expected value of osmolality contribution ([1]; ammonium phosphate 80 mM)	% of expected value of osmolality contribution ([1]; ammonium sulfate 40 mM)	% of expected value of osmolality contribution ([1]; ammonium sulfate 80 mM)	Level of aggregation ([1]; ammonium sulfate 80 mM)	Expected contribution of 25 mM amphipathic base to osmolality (calibrated in DDW and NaCl) [1]	Osmolality of agent [1]	Measured contribution of 25 mM base to osmolality ([1]; ammonium chloride 40 mM)	Measured contribution of 25 mM base to osmolality ([1]; ammonium chloride 80 mM)	Measured contribution of 25 mM base to osmolality ([1]; ammonium citrate 40 mM)	also measured
N.N.O=P(O)(O)O [(NH4)2HPO4, ammonium phosphate, dibasic]	2.83	–	–	–	–	–	–	–	–	–	–	–	–	–	–	–	–	–	–	–	–
N.N.O=S(=O)(O)O [(NH4)2SO4, ammonium sulfate]	2.97	–	–	–	–	–	–	–	–	–	–	–	–	–	–	–	–	–	–	–	–
N.N.N.O=C(O)CC(O)(CC(=O)O)C(=O)O [(NH4)3 citrate, ammonium citrate, tribasic]	3.45	–	–	–	–	–	–	–	–	–	–	–	–	–	–	–	–	–	–	–	Conductivity [2]: 11.96
CN(C)c1ccc2cc3ccc(N(C)C)cc3nc2c1 [AO, Acridine orange hemi(zinc chloride) salt]	–	100%	100%	None//None	96%	90%	Low	100%	100%	None//None	92%	79%	94%	85%	Low	48±4 mOsm and 48 mOsm	48 mOsm	49 mOsm	51 mOsm and 48 mOsm	46 mOsm	Measured contribution of 25 mM base to osmolality ([1]; ammonium citrate 80 mM): 43 mOsm; Measured contribution of 25 mM base to osmolality ([1]; ammonium glucuronate 40 mM): 48 mOsm; Measured contribution of 25 mM base to osmolality ([1]; ammonium glucuronate 80 mM): 50 mOsm and 48 mOsm; Measured contribution of 25 mM base to osmolality ([1]; ammonium phosphate 40 mM): 44 mOsm; Measured contribution of 25 mM base to osmolality ([1]; ammonium phosphate 80 mM): 41 mOsm and 38 mOsm; Measured contribution of 25 mM base to osmolality ([1]; ammonium sulfate 40 mM): 45 mOsm; Measured contribution of 25 mM base to osmolality ([1]; ammonium sulfate 80 mM): 44 mOsm and 41 mOsm; Partition coefficient (Kp) octanol/water ([3]; pH 5.5, 120 mM (NH4)2SO4): 9.00 (at pH 5.5, 120 mM (NH4)2SO4); Ratio at saturation of precipitation ([4]; DS 8,000 Da): 40; Ratio at saturation of precipitation ([4]; DS 10,000 Da): 50; Ratio at which aggregation reaches a plateau ([4]; DS 10,000 Da): 50 nmole AO or BUP per 1 mmole DS; Mole ratio weak base/DS at which aggregation (precipitation) starts [4]: 1
CCCCN1CCCCC1C(=O)Nc1c(C)cccc1C (stereo not drawn) [BUP, bupivacaine]	–	97%	100%	None//None	100%	91%	None	100%	100%	None//None	97%	84%	97%	88%	None	32±5 mOsm and 32 mOsm	32 mOsm	31 mOsm	30 mOsm and 32 mOsm	32 mOsm	Level of aggregation ([1]; ammonium phosphate 80 mM): None//|Low; Measured contribution of 25 mM base to osmolality ([1]; ammonium citrate 80 mM): 25 mOsm and 29 mOsm; Measured contribution of 25 mM base to osmolality ([1]; ammonium glucuronate 40 mM): 33 mOsm; Measured contribution of 25 mM base to osmolality ([1]; ammonium glucuronate 80 mM): 31 mOsm and 32 mOsm; Measured contribution of 25 mM base to osmolality ([1]; ammonium phosphate 40 mM): 30 mOsm; Measured contribution of 25 mM base to osmolality ([1]; ammonium phosphate 80 mM): 30 mOsm and 27 mOsm; Measured contribution of 25 mM base to osmolality ([1]; ammonium sulfate 40 mM): 31 mOsm; Measured contribution of 25 mM base to osmolality ([1]; ammonium sulfate 80 mM): 29 mOsm and 28 mOsm; Partition coefficient (Kp) octanol/water ([3]; pH 6, 250 mM (NH4)2SO4): 0.35 (at pH 6, 250 mM (NH4)2SO4); Ratio at which aggregation reaches a plateau ([4]; DS 10,000 Da): 50 nmole AO or BUP per 1 mmole DS; Mole ratio weak base/DS at which aggregation (precipitation) starts [4]: 1.0
N.O=C[C@H](O)[C@@H](O)[C@H](O)[C@H](O)C(=O)O [NH4 glucuronate, Ammonium glucuronate]	1.62	–	–	–	–	–	–	–	–	–	–	–	–	–	–	–	–	–	–	–	Conductivity [2]: 3.88 mS/cm
Cl.N [NH4Cl, Ammonium chloride]	1.96	–	–	–	–	–	–	–	–	–	–	–	–	–	–	–	–	–	–	–	–
[Cl-].[Na+] [NaCl]	2.00	–	–	–	–	–	–	–	–	–	–	–	–	–	–	–	–	–	–	–	–
CC1(C)CC(N)CC(C)(C)N1[O] [TMN, 2,2,6,6-tetramethylpiperidine-4-amino-1-oxyl]	–	100%	60%	medium	62%	20%	high	95%	90%	None	71%	20%	19%	0%	complete	21 mOsm	21 mOsm	21 mOsm	12 mOsm	13 mOsm	Level of aggregation ([1]; ammonium chloride 40 mM): Low; Level of aggregation ([1]; ammonium citrate 40 mM): Medium; Level of aggregation ([1]; ammonium glucuronate 40 mM): None; Level of aggregation ([1]; ammonium phosphate 40 mM): Medium; Level of aggregation ([1]; ammonium phosphate 80 mM): high; Level of aggregation ([1]; ammonium sulfate 40 mM): High; Aggregation in NaCl solutions ([1]; NaCl): lack of aggregate formation; Ranking of extent of aggregation with ammonium salts ([1]; Tables Ia, Ib, Ic): ammonium sulfate>ammonium citrate=ammonium phosphate>>ammonium chloride>ammonium glucuronate; Measured contribution of 25 mM base to osmolality ([1]; ammonium citrate 80 mM): 5 mOsm; Measured contribution of 25 mM base to osmolality ([1]; ammonium glucuronate 40 mM): 20 mOsm; Measured contribution of 25 mM base to osmolality ([1]; ammonium glucuronate 80 mM): 19 mOsm; Measured contribution of 25 mM base to osmolality ([1]; ammonium phosphate 40 mM): 15 mOsm; Measured contribution of 25 mM base to osmolality ([1]; ammonium phosphate 80 mM): 5 mOsm; Measured contribution of 25 mM base to osmolality ([1]; ammonium sulfate 40 mM): 4 mOsm; Measured contribution of 25 mM base to osmolality ([1]; ammonium sulfate 80 mM): 0 mOsm; Partition coefficient (Kp) octanol/water ([3]; pH 7, 150 mM (NH4)2SO4): 0.04 (at pH 7, 150 mM (NH4)2SO4); Leakage from liposomes ([5]; ammonium chloride gradient): less than 10%; Leakage from liposomes ([5]; ammonium glucuronate gradient): less than 10%; Leakage from liposomes ([5]; ammonium sulfate gradient, until 144 hr): no TV leakage was observed; Order of encapsulation stability by ammonium salt ([5]; 25° C. and 37° C.): (NH4)2SO4>>NH4Cl>NH4 glucuronate
